Measurements reported in US12162857B2, “Antiviral compounds” (priority 2022, dated 2024).

Test system: HMPV A2 TN/94-49
Assay: HMPV antiviral assay: LLC-MK2 cells, ATP-Lite readout
Type: cell-based
Conditions: LLC-MK2, 168 h, MOI 0.005, 7 days incubation
In short: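 LLC-MK2 cells (5,000/well) were infected in suspension with HMPV A2 TN/94-49 at MOI 0.005 in serum-free OptiMEM with 2 μg/mL final TPCK-trypsin, then incubated for 7 days at 37 °C. Compounds were tested in duplicate from 2 μM in 10-point 2.5-fold dilutions. ATP-Lite luminescence, normalised to virus-only and cells-only controls as % cell health, gave EC50 by four-parameter fit.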

Row | EC50 [nM] | SMILES
1 | < 1000 | [2H]C([2H])([2H])C(O)(c1cc([C@@](O)(CNC(=O)c2cc(OC)c3nn(C(F)F)cc3c2)c2ccccc2)nc(-c2cc(Cl)c(F)cc2F)c1F)C([2H])([2H])[2H] [Example 185]
2 | > 1000 | COc1cc(C(=O)NC[C@](O)(c2cc(N3CC[C@@H](O)C3)cc(-c3cc(Cl)c(F)cc3F)n2)C2CC2)cc2cn(C3CC3)nc12 [Example 200]
3 | < 1000 | COc1cc(C(=O)NC[C@](O)(c2cc(C(C)(C)O)c(F)c(-c3ccc(F)cc3)n2)C2CC2)cc2cn(C3(F)CC3)nc12 [Example 4]

Test system: Human RSV-A (“Long” strain)
Assay: RSV-A assay: CPE in Hep-2 cells, ATPlite readout
Type: cell-based
Conditions: human respiratory syncytial virus, 120 h, MOI 0.1, 5-day incubation
Text: Hep-2 cells, (originally derived from tumors grown in irradiated-cortisonised weanling rats that had been injected with epidermoid carcinoma tissue from a person's larynx, but later found to be indistinguishable from HeLa cells by PCR DNA analysis), were used for the culturing of genotype A, “Long” strain RSV. Flasks were inoculated with RSV and viral stocks were collected once cytopathic effect (CPE) was greater than 90%. Viral stocks in 25% sucrose media were snap frozen using liquid nitrogen to increase viral stability. Viral stock titers were quantified by tissue culture infectious dose 50% (TCID50) using 8,000 cells per well and 3-fold viral dilutions across a 96-well plate, cultured for 4 days. Viral stock titers were also quantified by a plaque forming unit assay, as described elsewhere.
Following extensive parameter testing, the final assay is run as follows: Hep-2 cells are seeded into the inner 60 wells of a 96-well plate at 8,000 cells per well in a volume of 50 μL using Growth Media (DMEM without phenol red, 1% L-Glut, 1% Penn/Strep, 1% nonessential amino acids, 10% heat-inactivated FBS). 2-fold serial dilutions of control and test compounds are added to the wells in duplicate in a total volume of 25 μL. Viral stock is then added to the wells at a multiplicity of infection (MOI) of 0.1 in a volume of 25 μL, bringing the total volume of each well to 100 μL. The MOI is calculated using the PFU/mL, or TCID50 if unavailable. Each 96-well plate has a control column of 6 wells with cells and virus but no compound (negative control, max CPE), a column with cells but no compound or virus (positive control, minimum CPE), and a column with no cells or virus or compound (background plate/reagent control). The control wells with cells but no virus are given an additional 25 μL of growth media containing an equal quantity of sucrose as those wells receiving the viral stock in order to keep consistent in media and volume conditions. The outer wells of the plate are filled with 125 μL of moat media (DMEM, 100 Penn/Strep) to act as a thermal and evaporative moat around the test wells. Following a 5-day incubation period, the plates are read using ATPlite (50 uL added per well), which quantifies the amount of ATP (a measure of cell health) present in each well. Assay plates are read using the Envision luminometer. […] EC50 ranges are as follows: A<0.01 μM; B 0.01-0.05 μM; C>0.05 μM.

Row | SMILES | EC50 [nM]
4 | COc1cc(C(=O)NC[C@](O)(c2cc(C(F)(F)C(N)=O)c(F)c(-c3ccc(F)c(Cl)c3F)n2)C2CC2)ccc1OC[C@@H](C)O (single isomer, unassigned) [Example 37] | > 50
5 | COc1cc(C(=O)NC[C@](O)(c2cc(C(F)(F)C(N)=O)c(F)c(-c3ccc(F)c(Cl)c3F)n2)C2CC2)cc2cn(C3CC3)nc12 (single isomer, unassigned) [Example 32] | 10 to 50
6 | N#CC1(c2cc([C@@](O)(CNC(=O)c3cc(OC4CC4)c4nn(C5CC5)cc4c3)C3CC3)nc(-c3cc(Cl)c(F)cc3F)c2F)CC1 (single isomer, unassigned) [Example 15] | 10 to 50
7 | NC(=O)C1(c2cc([C@@](O)(CNC(=O)c3cc(OC4CC4)c4nn(C5(F)CC5)cc4c3)C3CC3)nc(-c3cc(Cl)c(F)cc3F)c2F)CC1 (single isomer, unassigned) [Example 16] | 10 to 50
8 | COc1cc(C(=O)NC[C@](O)(c2cc(C(C)(C)O)c(F)c(-c3ccc(F)cc3)n2)C2CC2)cc2cn(C3(F)CC3)nc12 [Example 4] | < 10
9 | N#CC1(c2cc([C@@](O)(CNC(=O)c3cc(OC4CC4)c4nn(C5(F)CC5)cc4c3)C3CC3)nc(-c3cc(Cl)c(F)cc3F)c2F)CC1 (single isomer, unassigned) [Example 17] | 10 to 50
10 | COc1cc(C(=O)NC[C@](O)(c2cc(C(F)(F)C(N)=O)c(F)c(-c3ccc(F)c(Cl)c3F)n2)C2CC2)cc2cn(C3(F)CC3)nc12 (single isomer, unassigned) [Example 33] | < 10
11 | COc1cc(C(=O)NC[C@](O)(c2cc(C3(C#N)CC3)c(F)c(-c3cc(Cl)c(F)cc3F)n2)C2CC2)cc2cn(C3CC3)nc12 (single isomer, unassigned) [Example 12] | 10 to 50
12 | NC(=O)C1(c2cc([C@@](O)(CNC(=O)c3cc(OC4CC4)c4nn(C5CC5)cc4c3)C3CC3)nc(-c3cc(Cl)c(F)cc3F)c2F)CC1 (single isomer, unassigned) [Example 14] | 10 to 50

Next, values leading:

Row | EC50 [nM] | SMILES
13 | 10 to 50 | Cc1nc2c(OC(F)F)cc(C(=O)NC[C@](O)(c3cc(C(O)(C(F)(F)F)C(F)(F)F)c(F)c(-c4ccc(F)cc4)n3)C3CC3)cc2cc1Br (single isomer, unassigned) [Example 46]
14 | > 50 | COc1cc(C(=O)NC[C@](O)(c2cc(C(F)(F)C(N)=O)c(F)c(-c3cc(Cl)c(F)cc3F)n2)C2CC2)cc2cc(Cl)c(C)nc12 (single isomer, unassigned) [Example 42]
15 | < 10 | [2H]C([2H])([2H])C(O)(c1cc([C@@](O)(CNC(=O)c2cc(OC)c3nn(C(F)F)cc3c2)c2ccccc2)nc(-c2cc(Cl)c(F)cc2F)c1F)C([2H])([2H])[2H] [Example 185]
16 | > 50 | COc1cc(C(=O)NC[C@](O)(c2cc(N3CC[C@@H](O)C3)cc(-c3cc(Cl)c(F)cc3F)n2)C2CC2)cc2cn(C3CC3)nc12 [Example 200]
17 | 10 to 50 | COc1cc(C(=O)NC[C@](O)(c2cc(C(F)(F)C(N)=O)c(F)c(-c3cc(Cl)c(F)cc3F)n2)C2CC2)cc2cn(C(F)F)nc12 (single isomer, unassigned) [Example 41]
18 | 10 to 50 | Cc1nc2c(OC(F)F)cc(C(=O)NC[C@](O)(c3cc(C(C)(C)C(N)=O)c(F)c(-c4ccc(F)cc4)n3)C3CC3)cc2cc1Br (single isomer, unassigned) [Example 45]
19 | < 10 | COc1cc(C(=O)NC[C@](O)(c2cc(C(F)(F)C(N)=O)c(F)c(-c3cc(Cl)c(F)cc3F)n2)C2CC2)cc2cn(C3(F)CC3)nc12 (single isomer, unassigned) [Example 39]
20 | < 10 | Cc1nc2c(OC3CC3)cc(C(=O)NC[C@](O)(c3cc(C(C)(C)C(N)=O)c(F)c(-c4ccc(F)cc4)n3)C3CC3)cc2cc1Cl (single isomer, unassigned) [Example 44]
21 | < 10 | COc1cc(C(=O)NC[C@](O)(c2cc(C(C)(C)C(N)=O)c(F)c(-c3ccc(F)cc3)n2)C2CC2)cc2cn(C3CC3)nc12 (single isomer, unassigned) [Example 43]
22 | 10 to 50 | COc1cc(C(=O)NC[C@](O)(c2cc(C(F)(F)C#N)c(F)c(-c3cc(Cl)c(F)cc3F)n2)C2CC2)cc2cn(C3(F)CC3)nc12 [Example 40]
